Measurements: US9682931B2, “Aryloyl(oxy or amino)pentafluorosulfanylbenzene compound, pharmaceutically acceptable salt thereof, and prodrugs thereof” (UBE INDUSTRIES, LTD., priority 2013, dated 2017)

Assays:
RBL-2H3 cells = assay: Degranulation suppression test of RBL-2H3 cells (β-hexosaminidase release, IgE stimulation); assay type: cell-based, Rat; conditions: for Degranulation ratio: relative to untreated control, n = 4
Protocol: 1. Degranulation Suppression Test of RBL-2H3 Cells
As to Compound 3, the granule release (degranulation) suppression action on RBL-2H3 cell by IgE stimulation, which is a cell model for an allergic reaction, was examined.
A test substance (50 mg) was dissolved by adding 1 mL of 50 vol % ethanol to the test substance to obtain a concentration of 50 mg/mL. The solution thus obtained was diluted with a buffer solution. […] The concentrations were all indicated as the concentrations in cell supernatants.
β-Hexosaminidase abundantly present in granules of RBL-2H3 cells was used as the index of degranulation caused by IgE stimulation, and p-nitrophenol produced by the reaction with a substrate was measured by colorimetric assay. The activity values of β-hexosaminidase present within cells and released in the culture supernatant were determined to obtain the release rate of β-hexosaminidase, and then, a degranulation rate relative to an untreated control was obtained. Based on this, degranulation inhibitory action was evaluated.
(§1) Main test conditions and outline of the operation will be described below.
(§2) Cell: Rat basophil leukemic cell, RBL-2H3 [Human Sciences Foundation]
Stimulation of degranulation: Anti-DNP-IgE antibody, DNP labeled albumin [Sigma-Aldrich Corporation]
Degranulation Index: 3-Hexosaminidase activity
Measurement apparatus: Microplate reader, SpectraMax M2c • [Molecular Devices Corporation]
In this test, an action to suppress granule release (degranulation) in mast cells caused by an IgE antigen stimulation is evaluated. Thus, the smaller the degranulation ratio is, the stronger the effect is […]

[1] = tested on: TNF-α mRNA expression in RBL-2H3 cells; assay: Validation test in RBL-2H3 cell: TNF-α mRNA expression by antigen stimulation (Real-time PCR); assay type: cell-based, Rat; conditions: for TNF-α mRNA expression level: untreated control as 100
Protocol: 2. Validation Test in RBL-2H3 Cell
(Effect on Inflammation Mediator mRNA Expression by Antigen Stimulation)
After a cell model for an allergic reaction, RBL-2H3 cells, were stimulated by an antigen, mRNA expression level of a typical inflammation mediator, TNF-α, in the cell was measured by a Real-time PCR method. In this manner, a confirmation test for anti-inflammatory effect of Compound 3 was performed.
A test substance (Compound 3) (50 mg) was dissolved by adding 50 vol % ethanol (1 mL) to this to obtain an ethanol solution having a concentration of 50 mg/mL. The resultant solution was diluted with a medium. […] As a control (for comparison), Wortmannin (10 μM) was used. Herein, the concentrations were all indicated as the concentrations in cell supernatants.
RBL-2H3 cells were sensitized with anti-DNP-IgE antibody for 2 hours. A medium or a test solution was added and heat was applied at 37° C. for 10 minutes and then, a DNP-HSA solution was added. A reaction was carried out at 37° C. for 30 minutes. After completion of the reaction, total RNA was extracted from a cell fraction and cDNA was synthesized by use of Random Primer and Reverse Transcriptase. After a specific primer for a desired gene (ITNF-α,β-actin) was added, a Real-time PCR method was carried out in accordance with SYBR Green method using the resultant cDNA as a template to determine the expression level of mRNA. The expression ratio of the desired gene relative to a housekeeping gene, β-actin, was calculated. In this manner, a change in expression level relative to an untreated control was calculated.
as §1, §2
Antigen stimulation: Anti-DNP-IgE antibody, DNP labeled albumin
[Sigma-Aldrich Corporation]
Desired genes: IL-4, MCP-1, TNF-α, β-actin (housekeeping gene)
Measurement apparatus: StepOnePlus Real-Time PCR System [Life
Technologies Corporation] Measurement conditions: 95° C. (20 sec)→{95° C. (3 sec)→60° C. (30 sec)}×40 cycles
mRNA expression level (%) was obtained based on the expression level of the untreated control as 100.

[2] = tested on: lumen formed in angiogenesis kit with VEGF-A; assay: Angiogenesis inhibitory action (angiogenesis kit, VEGF-A, CD31 staining, area and length of lumen); assay type: cell-based; conditions: 5 μg/mL, VEGF-A 10 ng/mL, 11 days
Text: Angiogenesis Inhibitory Action
The angiogenesis inhibitory action of a test substance (Compound 3) was examined by use of measuring reagents and analysis software described below.
1. Measuring Reagents and Analysis Software
Angiogenesis kit (Cat. No. KZ-1000), manufactured by KURABO INDUSTRIES LTD.
Angiogenic agent VEGF-A (Cat. No. KZ-1350), manufactured by KURABO INDUSTRIES LTD.
Lumen staining kit (for staining CD31, Cat. No. ZHA-1225), manufactured by KURABO INDUSTRIES LTD.
Image analysis software: Angiogenesis Image Analyzer V2.0, manufactured by KURABO INDUSTRIES LTD.
Herein, as a culture medium, angiogenesis specific medium-2 (hereinafter referred to as the medium) provided in the above angiogenesis kit.
Positive control: Medium containing VEGF-A (10 ng/mL)
Negative control: Medium containing VEGF-A (10 ng/mL) and Suramin (50 μmol/L)
3. Preparation of Samples
A test substance was weighed at the starting day of a test. The medium was added so as to be 500 μg/mL. Sonication was performed while heating at 37° C. for 60 minutes to be dissolved. Then, filtration was performed by a 0.22 μm filter. The 500 μg/mL-solution was serially diluted with the medium in a common ratio of 10. […]
The pictures were subjected to image analysis by use of image analysis software, Angiogenesis Image Analyzer V 2.0, and the area and length of the lumen formed were measured.

O=C(Nc1ccc(S(F)(F)(F)(F)F)cc1)c1cc(O)c(O)c(O)c1 [Compound 3, 4-(3,4,5-trihydroxybenzoylamino)pentafluorosulfanylbenzene]
cytotoxicity (visual) (RBL-2H3 cells; RBL-2H3 cells, any concentration): not visually confirmed
Degranulation ratio (RBL-2H3 cells; sample 1 μg/mL): 91%
Degranulation ratio (RBL-2H3 cells; sample 10 μg/mL): 85%
Degranulation ratio (RBL-2H3 cells; sample 25 μg/mL): 73%
Degranulation ratio (RBL-2H3 cells; sample 50 μg/mL in cell supernatant): 35%
Degranulation ratio (RBL-2H3 cells; sample 100 μg/mL in cell supernatant): 19%
suppression of TNF-α mRNA expression ([1]; RBL-2H3 cells, antigen stimulation): Suppression of the mRNA expression TNF-α, one of inflammatory mediators, was confirmed
TNF-α mRNA expression level ([1]; sample 1 μg/mL): 87%
TNF-α mRNA expression level ([1]; sample 10 μg/mL): 69%
angiogenesis inhibitory effect (area and length of lumen) [2]: angiogenesis inhibitory effect was confirmed
